Measured values reported in article PMC6269910 (Molecules, 2013).
Several values for one entry are separate records, joined by “and”; a condition that tells them apart may be missing. Identical values can stand only once. Like-named read-outs stand apart in the source and are kept apart here. Values belong to the compound of their own block, whether it stands above or below them.

Experiments:
stomach = test: Gastric-ulcerogenic effect (ulcer score); format: in vivo, mice
[1] = system: lipid peroxidation in stomach; test: Lipid peroxidation in stomach (TBARS); format: in vivo, mice
[2] = system: acetic acid-induced abdominal constriction; test: Acetic acid-induced writhing (Koster) test; format: in vivo, mice
Description: Test samples, suspended in a mixture of distilled water and 0.5% sodium carboxymethyl cellulose (CMC), were given orally to the animals. The control group animals received the same experimental handling as those of the test groups, except that the drug treatment was replaced with appropriate volumes of the dosing vehicle. […] One hour after oral administration of test sample, each mouse was injected intraperitoneally with 3% (w/v) acetic acid solution (0.1 mL/10 g, bw). Starting 5 min after the acetic acid injection, the number of muscular contractions on mice were counted for a period of 10 min. A significant reduction in the number of writhings by any treatment as compared to the number of writhings in control animals was considered a positive analgesic response. The analgesic activity was expressed as a percentage change from writhing controls. ASA was used as a reference compound and administered at 200 mg/kg.

[3] = system: superoxide dismutase (SOD); test: SOD activity in liver, kidney, colon, brain; format: in vivo, mice; conditions: celecoxib 25 mg/kg oral, 72 h
Description: SOD is a major antioxidant enzyme found in cells, which protect cells from oxidative stress. SOD activity in the tissue samples was measured according to the previously described method.

LPO = LPO (TBARS) level in liver, kidney, colon, brain; format: in vivo, mice; conditions: celecoxib 25 mg/kg oral, 72 h
Description: (§1) Tissue samples were homogenized with ice-cold 150 mM KCl for the determination of LPO and glutathione (GSH) levels. The LPO levels were assayed by monitoring TBARS formation as described above.

glutathione (GSH) = test: GSH level in liver, kidney, colon, brain; format: in vivo, mice; conditions: celecoxib 25 mg/kg oral, 72 h
Description: as §1

myeloperoxidase (MPO) = test: MPO activity in liver, kidney, colon, brain; format: in vivo, mice; conditions: celecoxib 25 mg/kg oral, 72 h
Description: MPO is an enzyme that is found predominantly in the azurophilic granules of polymorphonuclear leukocytes (PMN). […] MPO activity was measured in tissues in a procedure similar to that documented by […] et al.

[4] = molecular target: T1, HCV NS5B RNA dependent RNA polymerase (Hepatitis C virus genotype 1b, UniProt P26663); test: NS5B inhibition assay (primer dependent elongation, poly rA-U12); format: biochemical; conditions: for IC50: dose-response, 8–12 concentrations
T1 construct: HCV NS5B RNA dependent RNA polymerase activity
Description: The compounds 1a–e and 2a–e were reconstituted in DMSO as 50 mM stocks, and serially diluted in DMSO to obtain working stocks. Wedelolactone, a known inhibitor of HCV NS5B activity, was employed as a reference compound. Preliminary screening was carried out at 100 μM to identify a wider range of compounds.
All synthesized compounds were evaluated for their effect on HCV NS5B RNA dependent RNA polymerase activity in primer dependent elongation assays as previously described. Activity of NS5B in the absence of the inhibitor but containing an equivalent amount of DMSO (control reaction) was set at 100% and that in the presence of the inhibitor was quantified relative to this control.

[5] = system: carrageenan-induced hind paw edema; test: Carrageenan-induced hind paw edema model; format: in vivo, mice
Description: Locally bred balb/c mice of both sexes (30-35 g) were purchased from the animal breeding laboratories of Inonu University ([…], Turkey). The animals were fed a standard pellet diet and water ad libitum in a temperature-controlled room. On the day before the treatments, food was withdrawn, but the animals were allowed free access of water. The allocation of animals to different groups was randomized, and the experiments were carried out under blind conditions. Mice used in the present study were cared for in accordance with the directory of the Inonu University Animal Care Unit, which applies the guidelines of the National Institutes of Health on laboratory animal welfare. Procedures involving animals and their care were conducted in conformity with international laws and policies and animal studies accepted by Inonu University Ethical Council (2011/A17). Test samples, suspended in a mixture of distilled water and 0.5% sodium carboxymethyl cellulose (CMC), were given orally to the animals. The control group animals received the same experimental handling as those of the test groups, except that the drug treatment was replaced with appropriate volumes of the dosing vehicle. […] For the preliminary activity screening, each test group was composed of four mice. […] Because of the daily changing circumstance, we used another control group for each experiment. For the determination of the effects on carrageenan-induced paw oedema, the modified method of Kasahara et al. was employed. One hour after the oral administration of either test sample or dosing vehicle, each mouse was injected with a freshly prepared (0.5 mg/25 μL) suspension of carrageenan (Sigma, St. Louis, MO, USA) in physiological saline (154 mM NaCl). The subplantar tissue of the right hind paw was the injection site for all mice. The contralateral paw (left hind paw) was injected with 25 μL saline solution as the internal control. […] The difference in footpad thickness between the right and left foot indicated the degree of inflammation for each mouse. The change in paw volume, either increase or decrease, was calculated and compared with the control group (dosing vehicle) and analyzed using statistical methods.

[6] = brain, series with 1a 100 mg/kg
[7] = brain, series with 1a 200 mg/kg
[8] = colon, series with 1a 100 mg/kg
[9] = colon, series with 1a 200 mg/kg
[10] = kidney, series with 1a 100 mg/kg
[11] = kidney, series with 1a 200 mg/kg
[12] = liver, series with 1a 100 mg/kg
[13] = liver, series with 1a 200 mg/kg
[14] = read-out: Anti-NS5B Activity (% Inh., 100 µM)

T1 sequence (P26663 2420-3010): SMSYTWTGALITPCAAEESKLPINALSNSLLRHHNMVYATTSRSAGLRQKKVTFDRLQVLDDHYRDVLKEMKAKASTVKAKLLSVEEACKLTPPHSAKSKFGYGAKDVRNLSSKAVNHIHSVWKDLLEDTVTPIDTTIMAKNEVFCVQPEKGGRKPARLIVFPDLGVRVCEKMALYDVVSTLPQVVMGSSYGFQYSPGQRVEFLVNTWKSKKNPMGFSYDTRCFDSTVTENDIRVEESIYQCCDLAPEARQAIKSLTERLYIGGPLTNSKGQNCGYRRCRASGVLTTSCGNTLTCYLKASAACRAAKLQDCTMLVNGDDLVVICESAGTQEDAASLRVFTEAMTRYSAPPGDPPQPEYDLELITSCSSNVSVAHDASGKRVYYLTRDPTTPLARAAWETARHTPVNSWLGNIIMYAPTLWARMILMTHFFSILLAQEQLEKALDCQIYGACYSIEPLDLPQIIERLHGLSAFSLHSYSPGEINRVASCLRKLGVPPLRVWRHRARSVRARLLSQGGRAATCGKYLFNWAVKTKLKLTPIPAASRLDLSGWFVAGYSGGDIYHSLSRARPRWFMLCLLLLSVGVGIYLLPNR

Lipid peroxidation ([1]; ASA 200 mg/kg): 436.1 ± 17.1 nmol TBARS/g wet weight
Structure (SMILES): CC(=O)Oc1ccccc1C(=O)O [ASA, acetylsalicylic acid, reference compound]
Ulcer score (stomach; ASA 200 mg/kg): 3/5
Writhing test (% inh.) ([2]; 200 mg/kg oral): 74.7%
Writhing test (Mean ± SEM) ([2]; 200 mg/kg oral): 4.4 ± 0.9

Structure (SMILES): Cc1ccc(-c2cc(C(F)(F)F)nn2-c2ccc(S(N)(=O)=O)cc2)cc1 [Celecoxib, 4-[5-(4-methylphenyl)-3-(trifluoromethyl)-1H-pyrazole-1-yl]benzene-sulfonamide, reference compound]
SOD [3, 6]: 24.84 ± 10.65 U/g tissue
SOD [3, 7]: 20.41 ± 13.73 U/g tissue
SOD [3, 8]: 16.85 ± 5.24 U/g tissue
SOD [3, 9]: 19.04 ± 5.60 U/g tissue
SOD [3, 10]: 17.79 ± 7.47 U/g tissue
SOD [3, 11]: 16.83 ± 9.71 U/g tissue
SOD [3, 12]: 22.78 ± 14.45 U/g tissue
SOD [3, 13]: 13.60 ± 11.98 U/g tissue
LPO (LPO; [6]): 8.18 ± 2.16 nmol/g tissue
LPO (LPO; [7]): 8.26 ± 1.01 nmol/g tissue
LPO (LPO; [8]): 7.12 ± 0.26 nmol/g tissue
LPO (LPO; [9]): 10.48 ± 2.69 nmol/g tissue
LPO (LPO; [10]): 11.12 ± 2.41 nmol/g tissue
LPO (LPO; [11]): 11.30 ± 2.52 nmol/g tissue
LPO (LPO; [12]): 9.56 ± 1.80 nmol/gtissue
LPO (LPO; [13]): 11.74 ± 2.25 nmol/gtissue
GSH (glutathione (GSH); [6]): 22.36 ± 2.45 µmol/g tissue
GSH (glutathione (GSH); [7]): 20.2 ± 3.26 µmol/g tissue
GSH (glutathione (GSH); [8]): 28.06 ± 1.45 µmol/g tissue
GSH (glutathione (GSH); [9]): 26.42 ± 3.46 µmol/g tissue
GSH (glutathione (GSH); [10]): 22.24 ± 4.17 µmol/g tissue
GSH (glutathione (GSH); [11]): 21.68 ± 5.56 µmol/g tissue
GSH (glutathione (GSH); [12]): 20.58 ± 4.25 µmol/g tissue
GSH (glutathione (GSH); [13]): 22.14 ± 1.04 µmol/g tissue
MPO (myeloperoxidase (MPO); [6]): 0.60 ± 0.23 U/gtissue
MPO (myeloperoxidase (MPO); [7]): 1.48 ± 0.46 U/gtissue
MPO (myeloperoxidase (MPO); [8]): 0.52 ± 0.26 U/gtissue
MPO (myeloperoxidase (MPO); [9]): 0.46 ± 0.26 U/gtissue
MPO (myeloperoxidase (MPO); [10]): 3.36 ± 1.57 U/g tissue
MPO (myeloperoxidase (MPO); [11]): 4.75 ± 1.59 U/g tissue
MPO (myeloperoxidase (MPO); [12]): 0.63 ± 0.30 U/gtissue
MPO (myeloperoxidase (MPO); [13]): 0.19 ± 0.06 U/gtissue
Ulcer score (stomach; celecoxib 25 mg/kg): 0/5
Anti-NS5B Activity (% Inh., 100 µM) ([4]; 100 µM): 9.5%
inhibition at 100 µM ([4]; read-out: Anti-NS5B Activity (% Inh., 100 µM), 100 µM): ~10%
Swelling in thickness ± SEM ([5]; 25 mg/kg per os, 90 min): 57.0 ± 6.9 × 10^−2 mm
Swelling in thickness ± SEM ([5]; 25 mg/kg per os, 180 min): 42.0 ± 3.3 × 10^−2 mm
percent inhibitory activity ([5]; 25 mg/kg per os, 180 min): 54.3%
Swelling in thickness ± SEM ([5]; 25 mg/kg per os, 270 min): 94.0 ± 10.4 × 10^−2 mm
Swelling in thickness ± SEM ([5]; 25 mg/kg per os, 360 min): 103.0 ± 7.5 × 10^−2 mm
Lipid peroxidation ([1]; celecoxib 25 mg/kg): 417.8 ± 23.3 nmol TBARS/g wet weight
Writhing test (% inh.) ([2]; 25 mg/kg oral): 54%
Writhing test (Mean ± SEM) ([2]; 25 mg/kg oral): 8.0 ± 1.3

melting point: 251 to 252 °C
inhibition at 100 µM [4, 14]: 53.5%
Structure (SMILES): Cc1ccc(-c2cc(C(F)(F)F)nn2-c2ccc(S(=O)(=O)NC(=S)Nc3ccccc3)cc2)cc1 [Compound 1b, N-(Phenylcarbamothioyl)-4-[5-(4-methylphenyl)-3-(trifluoromethyl)-1H-pyrazol-1-yl] benzene-sulfonamide]

melting point: 237 to 240 °C
IC50 [4]: 36.2 ± 1.2 µM
inhibition at 100 µM [4, 14]: 82.3%
Structure (SMILES): Cc1ccc(-c2cc(C(F)(F)F)nn2-c2ccc(S(=O)(=O)NC(=S)NCc3ccccc3)cc2)cc1 [Compound 1c, N-(Benzylcarbamothioyl)-4-[5-(4-methylphenyl)-3-(trifluoromethyl)-1H-pyrazol-1-yl] benzene-sulfonamide]

melting point: 245 to 248 °C
IC50 [4]: 46 µM and 45.5 µM
inhibition at 100 µM [4, 14]: 68%
Lipid peroxidation ([1]; 100 mg/kg, 8 h after analgesic test): 429.2 ± 23.2 nmol TBARS/g wet weight
Structure (SMILES): Cc1ccc(-c2cc(C(F)(F)F)nn2-c2ccc(S(=O)(=O)NC(=S)Nc3ccc([N+](=O)[O-])cc3)cc2)cc1 [Compound 1d]
Ulcer score (stomach; 200 mg/kg p.o., animals with lesions/animals): 0/5
Swelling in thickness ± SEM ([5]; 50 mg/kg per os, 90 min): 70.0 ± 4.7 × 10^−2 mm
percent inhibitory activity ([5]; 50 mg/kg per os, 90 min): 2.7%
Swelling in thickness ± SEM ([5]; 50 mg/kg per os, 180 min): 77.0 ± 2.0 × 10^−2 mm
percent inhibitory activity ([5]; 50 mg/kg per os, 180 min): 16.3%
Swelling in thickness ± SEM ([5]; 50 mg/kg per os, 270 min): 112.0 ± 7.3 × 10^−2 mm
percent inhibitory activity ([5]; 50 mg/kg per os, 270 min): 7.4%
Swelling in thickness ± SEM ([5]; 50 mg/kg per os, 360 min): 125.0 ± 5.9 × 10^−2 mm
percent inhibitory activity ([5]; 50 mg/kg per os, 360 min): 3.1%
Swelling in thickness ± SEM ([5]; 100 mg/kg per os, 90 min): 95.9 ± 10.2 × 10^−2 mm
Swelling in thickness ± SEM ([5]; 100 mg/kg per os, 270 min): 110.7 ± 11.0 × 10^−2 mm
percent inhibitory activity ([5]; 100 mg/kg per os, 270 min): 8.5%
Swelling in thickness ± SEM ([5]; 100 mg/kg per os, 360 min): 88.7 ± 9.3 × 10^−2 mm
percent inhibitory activity ([5]; 100 mg/kg per os, 360 min): 31.2%
Swelling in thickness ± SEM ([5]; 200 mg/kg per os, 90 min): 45.9 ± 10.9 × 10^−2 mm
percent inhibitory activity ([5]; 200 mg/kg per os, 90 min): 36.2%
Swelling in thickness ± SEM ([5]; 200 mg/kg per os, 180 min): 65.3 ± 6.4 × 10^−2 mm
percent inhibitory activity ([5]; 200 mg/kg per os, 180 min): 29.0%
Swelling in thickness ± SEM ([5]; 200 mg/kg per os, 270 min): 98.2 ± 9.8 × 10^−2 mm
percent inhibitory activity ([5]; 200 mg/kg per os, 270 min): 19.0%
Swelling in thickness ± SEM ([5]; 200 mg/kg per os, 360 min): 91.0 ± 3.3 × 10^−2 mm
percent inhibitory activity ([5]; 200 mg/kg per os, 360 min): 29.5%
anti-inflammatory activity (in words) ([5]; all doses, all measurement intervals): moderate-to-good
Writhing test (% inh.) ([2]; 100 mg/kg oral): 19.5%
Writhing test (Mean ± SEM) ([2]; 100 mg/kg oral, writhings counted 10 min from 5 min after acetic acid): 14.0 ± 3.0

melting point: 282 °C
inhibition at 100 µM [4, 14]: 8.2%
Structure (SMILES): CCN1C(=O)CS/C1=N\S(=O)(=O)c1ccc(-n2nc(C(F)(F)F)cc2-c2ccc(C)cc2)cc1 [Compound 2a, N-(3-Ethyl-4-oxo-1,3-thiazolidin-2-yldene)-4-[5-(4-methylphenyl)-3-(trifluoromethyl)-1H-pyrazol-1-yl]benzenesulfonamide]

melting point: 234 to 235 °C
inhibition at 100 µM [4, 14]: 9.4%
Structure (SMILES): Cc1ccc(-c2cc(C(F)(F)F)nn2-c2ccc(S(=O)(=O)/N=C3\SCC(=O)N3c3ccc(C(F)(F)F)cc3)cc2)cc1 [Compound 2e, N-[3-(4-Trifluoromethylphenyl)-4-oxo-1,3-thiazolidin-2-yldene)-4-[5-(4-methylphenyl)-3-(trifluoro-methyl)-1H-pyrazol-1-yl]benzenesulfonamide]
